≈ marks a conversion by molar mass, not a printed value.
Columns and labels:
[1] = biological target: T1, Glutamate racemase (Mycobacterium tuberculosis (strain ATCC 25618 / H37Rv)) (UniProt P9WPW9); test: Stabilization of Mycobacterium tuberculosis glutamate racemase assessed as change in melting temperature by sypro-orange dye-based fluorescence assay
T1 sequence (whole entry): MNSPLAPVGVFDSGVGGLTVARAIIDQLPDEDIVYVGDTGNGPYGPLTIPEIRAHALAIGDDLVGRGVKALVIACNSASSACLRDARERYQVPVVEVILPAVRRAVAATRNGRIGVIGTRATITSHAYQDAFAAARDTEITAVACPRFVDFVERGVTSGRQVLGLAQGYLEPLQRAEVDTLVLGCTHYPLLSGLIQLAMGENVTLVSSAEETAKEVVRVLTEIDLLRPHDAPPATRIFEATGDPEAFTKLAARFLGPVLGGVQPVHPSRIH

[2] = biological target: T1, Glutamate racemase (Mycobacterium tuberculosis (strain ATCC 25618 / H37Rv)); test: Stabilization of Mycobacterium tuberculosis glutamate racemase bound to D-glutamate assessed as change in melting temperature by sypro-orange dye-based fluorescence assay
[3] = tested on: Mycobacterium tuberculosis; test: Antimycobacterial activity against replicating Mycobacterium tuberculosis H37Rv incubated for 1 week by MABA method; type: functional; details: 168 h
[4] = tested on: Mycobacterium tuberculosis; test: Antimycobacterial activity against replicating Mycobacterium tuberculosis H37Rv incubated for 1 week in presence of verapamil by MABA method; type: functional; details: 168 h
[5] = tested on: RAW264.7; test: Cytotoxicity against mouse RAW264.7 cells assessed as reduction in cell viability at 25 uM after 48 hrs by MTT assay relative to control; type: cell-based; details: raw264.7, 48 h
[6] = tested on: Mycobacterium tuberculosis; test: Antimycobacterial activity against replicating Mycobacterium tuberculosis H37Rv incubated for 1 week in presence of piperine by MABA method; type: functional; details: 168 h
[7] = tested on: Mycobacterium marinum; test: Antimycobacterial activity against Mycobacterium marinum ATCC BAA-535 infected in zebrafish at 5 mg/kg, po treated for 7 days by MPN assay; type: functional
[8] = tested on: Mycobacterium tuberculosis; test: Antimycobacterial activity against Mycobacterium tuberculosis H37Rv dormant stage assessed as log reduction in bacterial load at 10 ug/ml incubated for 7 days; type: functional
[9] = tested on: Mycobacterium tuberculosis; test: Antibiofilm activity against Mycobacterium tuberculosis H37Rv assessed as log reduction in bacterial load at 10 ug/ml incubated for 1 week by MPN assay; type: functional
[10] = tested on: Mycobacterium tuberculosis; test: Bactericidal activity against Mycobacterium tuberculosis H37Rv dormant stage up to 21 days by time kill assay; type: functional; details: 504 h
[11] = biological target: T1, Glutamate racemase (Mycobacterium tuberculosis (strain ATCC 25618 / H37Rv)); test: Stabilization of Mycobacterium tuberculosis glutamate racemase bound to D-glutamate assessed as melting temperature by sypro-orange dye-based fluorescence assay (reference value: 45.1 degreeC)
[12] = tested on: Mycobacterium tuberculosis; test: Bactericidal activity against Mycobacterium tuberculosis H37Rv dormant stage at 5 to 20 uM by time kill assay; type: functional, organism-based; details: TDE = time-dependent effect
[13] = biological target: T1, Glutamate racemase (Mycobacterium tuberculosis (strain ATCC 25618 / H37Rv)); test: Stabilization of Mycobacterium tuberculosis glutamate racemase assessed as melting temperature by sypro-orange dye-based fluorescence assay (reference value: 43.7 degreeC)
[14] = tested on: Mycobacterium tuberculosis; test: Ratio of MIC for Mycobacterium tuberculosis H37Rv to MIC for Mycobacterium tuberculosis H37Rv in presence of verapamil; type: functional
[15] = tested on: Mycobacterium marinum; test: Antimycobacterial activity against Mycobacterium marinum ATCC BAA-535 infected in zebrafish at 10 mg/kg, po treated for 7 days by MPN assay; type: functional

Compound	MIC [3] [µM]	MIC [4] [µM]	Activity [5] [%]	MIC [6] [µM]	further results
Cc1ccc2oc(-c3cccc(NC(=O)NCc4ccccc4)c3)nc2c1	–	–	–	–	ΔTm [1]: 3.2 °C; ΔTm [2]: 2 °C
COc1ccc(NC(=O)Nc2cccc(-c3nc4ccccc4o3)c2)cc1	69.3 (≈ 24.9 µg/mL)	69.3	17.26	69.3	–
COc1c(N2C[C@@H]3CCCN[C@@H]3C2)c(F)cc2c(=O)c(C(=O)O)cn(C3CC3)c12 [MOXIFLOXACIN]	–	–	–	–	log(activity) [7]: 2.4; log(activity) [8]: 0.3; log(activity) [9]: 2
COc1ccc(NC(=O)Nc2cccc(-c3nc4cc(C)ccc4o3)c2)cc1	67.9 (≈ 25.4 µg/mL)	–	11.09	–	–
Cc1ccc2oc(-c3cccc(NC(=O)Nc4ccccc4)c3)nc2c1	72.9 (≈ 25 µg/mL)	72.9	10.15	72.9	–
O=C(NCc1ccccc1)Nc1cccc(-c2nc3ccccc3o2)c1	72.8 (≈ 25 µg/mL)	–	2.12	–	–
Cc1ccc(NC(=O)Nc2cccc(-c3nc4ccccc4o3)c2)cc1	36.2 (≈ 12.4 µg/mL)	36.2	1.09	36.2	–
Cc1ccc2oc(-c3cccc(NC(=O)Nc4ccc(F)cc4)c3)nc2c1	69.3 (≈ 25.1 µg/mL)	–	3.17	–	–
S=C(Nc1ccccc1)Nc1cccc(-c2nc3ccccc3o2)c1	19.3 (≈ 6.67 µg/mL)	–	96.23	–	–
Cc1ccc(NC(=S)Nc2cccc(-c3nc4cc(C)ccc4o3)c2)cc1	77 (≈ 28.8 µg/mL)	77	2.12	77	–
O=C(Nc1ccc(F)cc1)Nc1cccc(-c2nc3ccccc3o2)c1	72.1 (≈ 25.1 µg/mL)	72.1	2.98	72.1	–
CO[C@H]1/C=C/O[C@@]2(C)Oc3c(C)c(O)c4c(O)c(c(/C=N/N5CCN(C)CC5)c(O)c4c3C2=O)NC(=O)/C(C)=C\C=C\[C@H](C)[C@H](O)[C@@H](C)[C@@H](O)[C@@H](C)[C@H](OC(C)=O)[C@@H]1C [RIFAMPIN]	0.21 (≈ 0.173 µg/mL)	0.21	–	0.21	log(activity) [8]: 0.8; log(activity) [9]: 1.5
Cc1ccc2oc(-c3cccc(NC(=S)Nc4ccc(F)cc4)c3)nc2c1	2.16 (≈ 0.815 µg/mL)	–	81.92	–	log(activity) [8]: 2.5; log(activity) [9]: 0.8
NNC(=O)c1ccncc1 [ISONIAZID]	0.78 (≈ 0.107 µg/mL)	0.78	–	0.78	log(activity) [7]: 2.5; log(activity) [8]: 1.4; log(activity) [9]: 1.2
O=C(Nc1ccccc1)Nc1cccc(-c2nc3ccccc3o2)c1	75.1 (≈ 24.7 µg/mL)	–	48.38	–	–
CC(C)c1ccc(NC(=O)Nc2cccc(-c3nc4ccccc4o3)c2)cc1	81.2 (≈ 30.2 µg/mL)	–	3.52	–	–
Fc1ccc(NC(=S)Nc2cccc(-c3nc4ccccc4o3)c2)cc1	4.37 (≈ 1.59 µg/mL)	–	96.02	–	MBC [10]: 27.5 µM (≈ 9.98 µg/mL); log(activity) [8]: 0.2; log(activity) [9]: 0.4
CC[C@@H](CO)NCCN[C@@H](CC)CO [ETHAMBUTOL]	7.89 (≈ 1.61 µg/mL)	3.82	–	3.82	–
S=C(Nc1ccc(Cl)cc1)Nc1cccc(-c2nc3ccccc3o2)c1	63.9 (≈ 24.3 µg/mL)	–	22.81	–	–
O=C(Nc1ccc([N+](=O)[O-])cc1)Nc1cccc(-c2nc3ccccc3o2)c1	67 (≈ 25.1 µg/mL)	–	95.11	–	–
O=[N+]([O-])c1ccc(NC(=S)Nc2cccc(-c3nc4ccccc4o3)c2)cc1	2.09 (≈ 0.816 µg/mL)	–	88.12	–	log(activity) [8]: 2.5; log(activity) [9]: 0.8
O=C(Nc1ccc(Cl)cc1)Nc1cccc(-c2nc3ccccc3o2)c1	68.3 (≈ 24.9 µg/mL)	–	38.91	–	–
S=C(NCc1ccccc1)Nc1cccc(-c2nc3ccccc3o2)c1	69.2 (≈ 24.9 µg/mL)	2.21	47.21	2.21	–
Cc1ccc2oc(-c3cccc(NC(=S)Nc4ccc([N+](=O)[O-])cc4)c3)nc2c1	61.9 (≈ 25 µg/mL)	1.91	98.1	1.91	–
Cc1ccc2oc(-c3cccc(NC(=O)Nc4ccc(Cl)cc4)c3)nc2c1	66.3 (≈ 25.1 µg/mL)	–	1.09	–	–
Cc1ccc2oc(-c3cccc(NC(=S)NCc4ccccc4)c3)nc2c1	2.05 (≈ 0.766 µg/mL)	–	38.91	–	–
Cc1ccc2oc(-c3cccc(NC(=S)Nc4ccccc4)c3)nc2c1	69.6 (≈ 25 µg/mL)	8.69	87.32	8.69	–
Cc1ccc(NC(=S)Nc2cccc(-c3nc4ccccc4o3)c2)cc1	69.5 (≈ 25 µg/mL)	–	99.14	–	–
Cc1ccc2oc(-c3cccc(NC(=S)Nc4ccc(Cl)cc4)c3)nc2c1	8.72 (≈ 3.43 µg/mL)	2.01	55.82	2.01	Tm [11]: 51.9 °C; Activity [12]: Tde; Tm [13]: 49.8 °C; MBC [10]: 25.4 µM (≈ 10 µg/mL); Ratio [14]: 4; log(activity) [8]: 2.5; log(activity) [15]: 3.4; log(activity) [9]: 2.4

From ChEMBL document CHEMBL4251635, “Identification and development of benzoxazole derivatives as novel bacterial glutamate racemase inhibitors” (Eur J Med Chem, 2018)
